Tests used:
[1] = test system: melanin in skin; experiment: whitening action, melanin measurement (Mexameter MX18) on half-face application; type: in vivo, human; conditions: inferred from loss of activity after heat treatment of ozonized glycerin
Method: Forty-eight healthy individuals (females, 41 years or older and 59 years or younger) participated as test subjects. The test subjects were well informed with description documents (including a consent form) in advance, and a written consent was acquired from each test subject.
For examination of the whitening action, a test product of Example 2-1A, a test product of Example 2-1B, a test product of Reference Example 2-1A, and a test product of Reference Example 2-1B were prepared.
The test subjects were divided into two groups below (24 test subjects in each group). Each test subject took two pushes (approximately 1 ml) of a test product on the hands and applied the test product to a specified half of the face after every face washing performed twice per day (morning and night). […]
Each test subject was subjected to quintuple melanin measurement for freckle sites in the left and right cheeks on the day of initiation of application of test products (week 0) and 4 weeks and 8 weeks after the initiation of application. […] In addition, the changes of melanin measurement values from those at the initiation of the test were determined. Statistical test was carried out with Student t-test, and cases with p<0.05 were determined to be significant differences. […]

[2] = biological target: T1, TRPM2 (Homo sapiens, UniProt O94759); experiment: TRP channel activation, intracellular Ca2+ in TRPM2 (expressing cells); type: cell-based
T1 construct: expressed in transfected cells
T1 sequence (O94759 whole entry): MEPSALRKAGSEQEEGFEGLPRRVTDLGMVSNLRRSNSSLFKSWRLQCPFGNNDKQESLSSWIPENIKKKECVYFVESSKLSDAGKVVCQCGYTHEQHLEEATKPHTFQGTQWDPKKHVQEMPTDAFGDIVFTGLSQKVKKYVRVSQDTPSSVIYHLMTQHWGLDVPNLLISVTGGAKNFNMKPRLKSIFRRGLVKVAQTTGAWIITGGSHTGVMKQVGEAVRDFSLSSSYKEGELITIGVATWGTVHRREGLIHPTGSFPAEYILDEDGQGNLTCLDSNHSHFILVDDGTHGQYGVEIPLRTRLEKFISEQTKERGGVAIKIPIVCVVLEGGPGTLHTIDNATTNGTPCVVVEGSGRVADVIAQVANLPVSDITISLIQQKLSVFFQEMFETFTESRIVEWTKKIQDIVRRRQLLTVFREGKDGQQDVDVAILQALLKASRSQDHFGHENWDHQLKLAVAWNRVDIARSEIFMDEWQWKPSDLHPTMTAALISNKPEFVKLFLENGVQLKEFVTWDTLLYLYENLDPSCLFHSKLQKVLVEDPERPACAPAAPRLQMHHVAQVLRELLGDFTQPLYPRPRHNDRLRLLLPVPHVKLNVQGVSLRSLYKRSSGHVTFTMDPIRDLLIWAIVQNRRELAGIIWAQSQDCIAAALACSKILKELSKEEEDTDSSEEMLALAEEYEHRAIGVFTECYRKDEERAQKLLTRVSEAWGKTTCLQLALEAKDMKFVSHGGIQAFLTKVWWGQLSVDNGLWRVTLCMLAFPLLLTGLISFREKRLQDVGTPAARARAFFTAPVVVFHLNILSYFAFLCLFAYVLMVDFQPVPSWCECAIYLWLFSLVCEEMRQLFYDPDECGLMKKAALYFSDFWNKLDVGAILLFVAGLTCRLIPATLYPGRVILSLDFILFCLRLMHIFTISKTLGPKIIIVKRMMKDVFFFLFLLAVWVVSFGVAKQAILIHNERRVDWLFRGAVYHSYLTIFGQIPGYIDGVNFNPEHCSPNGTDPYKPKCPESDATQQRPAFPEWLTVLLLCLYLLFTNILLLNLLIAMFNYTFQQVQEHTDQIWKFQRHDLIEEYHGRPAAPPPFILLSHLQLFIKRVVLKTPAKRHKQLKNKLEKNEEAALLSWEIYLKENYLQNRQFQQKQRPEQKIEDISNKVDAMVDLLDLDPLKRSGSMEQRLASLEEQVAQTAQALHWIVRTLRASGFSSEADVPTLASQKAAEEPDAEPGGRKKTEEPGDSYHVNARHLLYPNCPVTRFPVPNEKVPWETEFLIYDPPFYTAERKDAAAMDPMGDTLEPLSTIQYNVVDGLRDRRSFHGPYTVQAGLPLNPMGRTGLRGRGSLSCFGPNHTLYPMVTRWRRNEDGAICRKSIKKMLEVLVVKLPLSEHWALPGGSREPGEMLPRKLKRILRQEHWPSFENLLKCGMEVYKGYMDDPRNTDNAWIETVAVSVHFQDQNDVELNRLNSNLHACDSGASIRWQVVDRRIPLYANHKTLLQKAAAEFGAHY
Source text: The TLC1 spot product produced in “(1) Production of Oxidation Reaction Product Containing Cyclic Peroxide According to the First Mode of the Present Invention” was directly used without separation (purification) to examine the TRP channel activation. Hereinafter, […]. Hereinafter, “OG” indicates a product formed by ozone-oxidizing glycerin with an oxygen generator (ozonized glycerin). In production of “OG”, the ozone oxidation of glycerin with an oxygen generator was performed with use of a gas having an ozone concentration of approximately 37000 ppm, which had been obtained through a process in which a high concentration of oxygen (oxygen concentration: 70% or more) was given to air with an oxygen generator and the oxygen was ozonized via an ozone generator, under Conditions A below. Hereinafter, “LOG” indicates a product formed by further oxidizing “OG”. Production of “LOG” by oxidation of “OG” was performed with use of a gas having an ozone concentration of approximately 37000 ppm, which had been obtained through a process in which oxygen from an oxygen tank (oxygen concentration: 99% or more) was ozonized via an ozone generator, under Conditions B below. […]

[3] = positive control, known activity; cited from earlier work
[4] = general statement; cited from earlier work

OCC(O)C1OOCOCC1O (single isomer, unassigned) [compound of the chemical formula (1)]
whitening action (inferred active ingredient) [1]: active ingredient responsible for the whitening action

OCC(O)CO [G, glycerin]
TRP channel activation (net intracellular Ca2+ increase rates) ([2]; 10% by mass aqueous solution, FIG. 1-24): high TRP channel activation | TRP channel activation (net intracellular Ca2+ increase rates) ([2]; concentrations (% by mass) of the aqueous solutions changed, FIG. 1-25): higher TRP channel activation at high concentrations

O=C(C[n+]1ccsc1)c1ccccc1.[Br-] [PTB, N-phenacylthiazolium bromide]
cleavage activity to crosslinking structures formed by AGEs [3]: known to have cleavage activity to crosslinking structures formed by AGEs

C[C@@H]1CC[C@H]2[C@@H](C)C(=O)O[C@@H]3O[C@@]4(C)CC[C@@H]1[C@]32OO4 [artemisinin]
water solubility and liposolubility [4]: neither water-soluble nor liposoluble

Source: patent publication US20250255795A1, “CYCLIC PEROXIDE, OXIDATION REACTION PRODUCT, METHOD FOR PRODUCING OXIDATION REACTION PRODUCT, AND APPLICATIONS OF THESE” (MEDIPLUS PHARMA, INC., priority 2021, published 2025)
